Data taken from ChEMBL document CHEMBL1201862, “PubChem BioAssay data set” (2004).
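Following 48 hours of exposure in 96-well plates, responses at five concentrations were used to interpolate endpoints linearly. GI50 = concentration required for 50% inhibition of growth.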 Activity calls are given as the source filed them. Rule as the data show it: active = GI50 up to about 1.1 µM and inactive = higher.

How the values were obtained:
Assay in all cases: DTP human tumour cell line panel, 48 h
[1] = system: NCI/ADR-RES
[2] = system: MOLT-4
[3] = system: HOP-92
[4] = system: RPMI-8226
[5] = system: OVCAR-4
[6] = system: SF-539
[7] = system: HCT-15
[8] = system: NCI-H460
[9] = system: SR
[10] = system: HOP-62
[11] = system: HL-60
[12] = system: K562
[13] = system: OVCAR-8
[14] = system: U-251
[15] = system: PC-3
[16] = system: SK-MEL-2
[17] = system: A549
[18] = system: HCC 2998
[19] = system: HCT-116
[20] = system: MDA-MB-231
[21] = system: SNB-19
[22] = system: RXF 393
[23] = system: SF-268
[24] = system: BT-549
[25] = system: UACC-257
[26] = system: UACC-62
[27] = system: LOX IMVI
[28] = system: NCI-H226
[29] = system: SN12C
[30] = system: COLO 205
[31] = system: T47D
[32] = system: ACHN
[33] = system: TK-10
[34] = system: KM12
[35] = system: IGROV-1
[36] = system: A498
[37] = system: SK-OV-3
[38] = system: Malme-3M
[39] = system: SF-295
[40] = system: HT-29
[41] = system: 786-0
[42] = system: SK-MEL-28
[43] = system: SK-MEL-5
[44] = system: Hs-578T
[45] = system: SNB-75
[46] = system: MCF7
[47] = system: EKVX
[48] = system: UO-31
[49] = system: MDA-MB-435
[50] = system: SW-620
[51] = system: NCI-H23
[52] = system: M14
[53] = system: NCI-H522
[54] = system: DU-145
[55] = system: CCRF-CEM
[56] = system: OVCAR-5
[57] = system: OVCAR-3
[58] = system: CAKI-1

SMILES: CC(C)(C)[C@@H]1NC(=O)CN1C(=O)OCc1ccccc1
- GI50 [1]: > 100 µM (inactive)
- GI50 [2]: > 100 µM (inactive)
- GI50 [3]: > 100 µM (inactive)
- GI50 [4]: > 100 µM (inactive)
- GI50 [5]: > 100 µM (inactive)
- GI50 [6]: > 100 µM (inactive)
- GI50 [7]: > 100 µM
- GI50 [8]: > 100 µM (inactive)
- GI50 [9]: > 100 µM (inactive)
- GI50 [10]: > 100 µM (inactive)
- GI50 [11]: > 100 µM (inactive)
- GI50 [12]: > 100 µM (inactive)
- GI50 [13]: > 100 µM (inactive)
- GI50 [14]: > 100 µM (inactive)
- GI50 [15]: > 100 µM (inactive)
- GI50 [16]: > 100 µM (inactive)
- GI50 [17]: > 100 µM (inactive)
- GI50 [18]: > 100 µM (inactive)
- GI50 [19]: > 100 µM (inactive)
- GI50 [20]: > 100 µM (inactive)
- GI50 [21]: > 100 µM (inactive)
- GI50 [22]: > 100 µM (inactive)
- GI50 [23]: > 100 µM (inactive)
- GI50 [24]: > 100 µM (inactive)
- GI50 [25]: > 100 µM (inactive)
- GI50 [26]: > 100 µM (inactive)
- GI50 [27]: > 100 µM (inactive)
- GI50 [28]: > 100 µM (inactive)
- GI50 [29]: > 100 µM (inactive)
- GI50 [30]: > 100 µM (inactive)
- GI50 [31]: > 100 µM (inactive)
- GI50 [32]: > 100 µM (inactive)
- GI50 [33]: > 100 µM (inactive)
- GI50 [34]: > 100 µM (inactive)
- GI50 [35]: > 100 µM (inactive)
- GI50 [36]: > 100 µM (inactive)
- GI50 [37]: > 100 µM (inactive)
- GI50 [38]: > 100 µM (inactive)
- GI50 [39]: > 100 µM (inactive)
- GI50 [40]: > 100 µM (inactive)
- GI50 [41]: > 100 µM (inactive)
- GI50 [42]: > 100 µM (inactive)
- GI50 [43]: > 100 µM (inactive)
- GI50 [44]: 0.661 µM (active)
- GI50 [45]: > 100 µM (inactive)
- GI50 [46]: > 100 µM (inactive)
- GI50 [47]: > 100 µM (inactive)
- GI50 [48]: > 100 µM (inactive)
- GI50 [49]: > 100 µM (inactive)
- GI50 [50]: > 100 µM (inactive)
- GI50 [51]: > 100 µM (inactive)
- GI50 [52]: > 100 µM (inactive)
- GI50 [53]: > 100 µM (inactive)
- GI50 [54]: > 100 µM (inactive)
- GI50 [55]: > 100 µM (inactive)
- GI50 [56]: > 100 µM (inactive)

SMILES: O=C(O)C(O)Cc1ccccn1 (configuration not stated)
- GI50 [1]: > 100 µM (inactive)
- GI50 [3]: > 100 µM (inactive)
- GI50 [4]: > 100 µM (inactive)
- GI50 [5]: > 100 µM (inactive)
- GI50 [7]: > 100 µM
- GI50 [8]: > 100 µM (inactive)
- GI50 [9]: > 100 µM (inactive)
- GI50 [10]: > 100 µM (inactive)
- GI50 [11]: > 100 µM (inactive)
- GI50 [12]: > 100 µM (inactive)
- GI50 [13]: > 100 µM (inactive)
- GI50 [14]: > 100 µM (inactive)
- GI50 [15]: > 100 µM (inactive)
- GI50 [57]: > 100 µM (inactive)
- GI50 [16]: > 100 µM (inactive)
- GI50 [17]: > 100 µM (inactive)
- GI50 [18]: > 100 µM (inactive)
- GI50 [20]: > 100 µM (inactive)
- GI50 [21]: > 100 µM (inactive)
- GI50 [22]: > 100 µM (inactive)
- GI50 [23]: > 100 µM (inactive)
- GI50 [24]: > 100 µM (inactive)
- GI50 [25]: > 100 µM (inactive)
- GI50 [26]: > 100 µM (inactive)
- GI50 [27]: > 100 µM (inactive)
- GI50 [28]: > 100 µM (inactive)
- GI50 [30]: > 100 µM (inactive)
- GI50 [31]: > 100 µM (inactive)
- GI50 [32]: > 100 µM (inactive)
- GI50 [33]: > 100 µM (inactive)
- GI50 [34]: > 100 µM (inactive)
- GI50 [35]: > 100 µM (inactive)
- GI50 [36]: > 100 µM (inactive)
- GI50 [37]: > 100 µM (inactive)
- GI50 [38]: > 100 µM (inactive)
- GI50 [39]: > 100 µM (inactive)
- GI50 [40]: > 100 µM (inactive)
- GI50 [42]: > 100 µM (inactive)
- GI50 [43]: > 100 µM (inactive)
- GI50 [44]: > 100 µM (inactive)
- GI50 [46]: > 100 µM (inactive)
- GI50 [47]: > 100 µM (inactive)
- GI50 [48]: > 100 µM (inactive)
- GI50 [49]: > 100 µM (inactive)
- GI50 [58]: > 100 µM (inactive)
- GI50 [50]: > 100 µM (inactive)
- GI50 [51]: > 100 µM (inactive)
- GI50 [52]: > 100 µM (inactive)
- GI50 [53]: > 100 µM (inactive)
- GI50 [54]: > 100 µM (inactive)
- GI50 [55]: > 100 µM (inactive)
- GI50 [56]: > 100 µM (inactive)

SMILES: CSc1ncc2c(n1)-c1ccccc1OC2NC(C)(C)C (configuration not stated)
- GI50 [2]: 47.2 µM (inactive)
- GI50 [3]: 31.8 µM (inactive)
- GI50 [4]: 57.7 µM (inactive)
- GI50 [5]: > 100 µM (inactive)
- GI50 [6]: > 100 µM (inactive)
- GI50 [7]: > 100 µM
- GI50 [8]: > 100 µM (inactive)
- GI50 [9]: > 100 µM (inactive)
- GI50 [10]: > 100 µM (inactive)
- GI50 [11]: > 100 µM (inactive)
- GI50 [12]: > 100 µM (inactive)
- GI50 [13]: > 100 µM (inactive)
- GI50 [14]: > 100 µM (inactive)
- GI50 [15]: > 100 µM (inactive)
- GI50 [57]: > 100 µM (inactive)
- GI50 [17]: > 100 µM (inactive)
- GI50 [18]: 21.3 µM (inactive)
- GI50 [19]: > 100 µM (inactive)
- GI50 [20]: > 100 µM (inactive)
- GI50 [21]: > 100 µM (inactive)
- GI50 [22]: 98.4 µM (inactive)
- GI50 [23]: 87.3 µM (inactive)
- GI50 [24]: 44.9 µM (inactive)
- GI50 [25]: > 100 µM (inactive)
- GI50 [26]: 68.1 µM (inactive)
- GI50 [27]: > 100 µM (inactive)
- GI50 [28]: 31.4 µM (inactive)
- GI50 [29]: > 100 µM (inactive)
- GI50 [30]: > 100 µM (inactive)
- GI50 [31]: 55 µM (inactive)
- GI50 [32]: 92.9 µM (inactive)
- GI50 [33]: 33.9 µM (inactive)
- GI50 [34]: > 100 µM (inactive)
- GI50 [36]: 2.62 µM (inactive)
- GI50 [37]: 91.2 µM (inactive)
- GI50 [38]: > 100 µM (inactive)
- GI50 [39]: 47.3 µM (inactive)
- GI50 [40]: 77.6 µM (inactive)
- GI50 [41]: > 100 µM (inactive)
- GI50 [42]: > 100 µM (inactive)
- GI50 [44]: 83.4 µM (inactive)
- GI50 [45]: 27.2 µM (inactive)
- GI50 [46]: 36.5 µM (inactive)
- GI50 [47]: 29 µM (inactive)
- GI50 [48]: 63.4 µM (inactive)
- GI50 [49]: > 100 µM (inactive)
- GI50 [58]: 35.7 µM (inactive)
- GI50 [50]: > 100 µM (inactive)
- GI50 [51]: > 100 µM (inactive)
- GI50 [52]: > 100 µM (inactive)
- GI50 [53]: 27.8 µM (inactive)
- GI50 [54]: > 100 µM (inactive)
- GI50 [55]: 91.4 µM (inactive)
- GI50 [56]: 50.7 µM (inactive)
